“Also recorded” adds a separate entry of the source.
Experiments:
[1] = tested on: Eμ-Myc cells (mouse primary B lymphoma cells), gapdh^low vs gapdh^high; experiment: Cell death assay (DAPI staining, flow cytometry); type: cell-based
Description: C57BL/6 Eμ-Myc transgenic mice were purchased from the Jackson Laborator.
Eμ-Myc cells (0.2×10^6) were seeded in 96 well-plates in the presence or absence of 200 μM of phenformin (Sigma) for 24 hours and 48 hours. Cells were then labeled with DAPI (Molecular Probes; 0.5 μg/mL) and analyzed immediately by flow cytometry using a MACSQuant Analyzer (Miltenyi Biotec).

[2] = tested on: Eμ-Myc cells (mouse primary B lymphoma cells), gapdh^low vs gapdh^high; experiment: Proliferation assay (proliferation index, DAPI exclusion); type: cell-based; conditions: phenformin 50 μM, 24 and 48 hours
Description: Mouse primary Eμ-Myc clones (B lymphoma cells) obtained from lymphomas of different C57BL/6 Eμ-Myc transgenic mice were isolated as described previously (Lindemann et al., 2007) and maintained in DMEM supplemented with 10% FCS, 2-mercaptoethanol (50 μM), L-asparagin (0.37 mM) and HEPES (pH 7.4, 10 mM). C57BL/6 Eμ-Myc transgenic mice were purchased from the Jackson Laborator.
Eμ-Myc cells (0.2×10^6) were seeded in 96 well-plates in the presence or absence of 50 μM of Phenformin for 0, 24 and 48 hours. Number of living and dead cells was counted using DAPI staining exclusion by flow cytometry (MACSQuant Analyser, Miltenyi Biotec). Proliferation index were calculated by dividing the number of living cells obtained for each day by the one obtained the day of seeding (day 0).

[3] = tested on: Eμ-Myc-gapdh^low lymphoma; experiment: Animal study: lymphoma transfer of Eμ-Myc-gapdh^low cells into syngeneic C57BL/6 mice; type: in vivo, mouse; conditions: Eμ-Myc-gapdh^low-bearing mice; 200 mg/kg/day phenformin in drinking water for 12 days; FIG. 5
Description: Lymphoma transfer of a isolated Eμ-Myc clone was realized into syngeneic, nontransgenic, 6-week-old C57BL/6 females by tail vein injection of 0.1×10^6 viable Eμ-Myc lymphoma cells per recipient mouse (in 150 μL of sterile PBS). Phenformin treated group received 200 mg/kg/day phenformin in the drinking water for 12 days. Phenformin powder was dissolved every two days in the drinking water, taking into account the mouse body weight and the volume of water consumed each day. Untreated mice (controls) received water (n=10 mice/group). Food was given ad libitum. The first signs of the pathology were determined by inguinal lymph node palpation and analyses of blood sample with Hemavet 950FS (Drew Scientific, INC, France). Progression-free survival was determined by the time between the iv injection of the cell and the appearance of enlarged lympho nodes. Lymphoma-bearing animals were killed by cervical dislocation as soon as they presented signs of illness. Upon sacrifice all lymph node tumors and spleen are immediately collected and weighted. All mice were maintained in specific pathogen-free conditions and experimental procedures were approved by the Institutional Animal Care and Use Committee and by the regional ethics committee (PEA232 from Comité Institutionnel d'Ethique Pour l'Animal de Laboratoire—AZUR).

Molecule	Sensitivity to L-asparaginase (cell death) ([1]; Eμ-Myc-gapdh^high cells silenced for gapdh (shgapdh) vs control, L-asparaginase 0.3 UI/ml, 24 hours, FIG. 4C)	Sensitivity to L-asparaginase (cell death) ([1]; Eμ-Myc-gapdh^low vs Eμ-Myc-gapdh^high clones, L-asp 0.3 UI/ml, 1.0 UI/ml, 24 hours, FIG. 3C)	Sensitivity to phenformin (proliferation index) ([2]; Eμ-Myc-gapdh^high cells silenced for gapdh (shgapdh) vs control, FIG. 4B)	Sensitivity to phenformin (proliferation index) ([2]; Eμ-Myc-gapdh^low vs Eμ-Myc-gapdh^high clones, FIG. 3B)	Sensitivity to phenformin (cell death) ([1]; Eμ-Myc-gapdh^high cells silenced for gapdh (shgapdh) vs control, phenformin 100 μM, 24 and 48 hours, FIG. 4A)	Sensitivity to phenformin (cell death) ([1]; Eμ-Myc-gapdh^low vs Eμ-Myc-gapdh^high clones, phenformin 200 μM, 24 hours, FIG. 3A)	B lymphoma progression (progression-free survival, size of axillary lymphomas and spleen) [3]
L-asparaginase	more sensitive; also recorded: sensitizes	more sensitive					
[H]/N=C(/N)N/C(=N/[H])NCCc1ccccc1 [phenformin]			more sensitive	more sensitive	more sensitive; also recorded: sensitizes	more sensitive	reduced

— patent publication US10947598B2, “Methods for determining the metabolic status of lymphomas” (INSERM (Institut National de la Sante et de la Recherche …, priority 2015, dated 2021)
